# Measured values from ChEMBL document CHEMBL1201862, “PubChem BioAssay data set” (2004).
# Calls of active or inactive are those of the source.
# Experiments:
# [1] = target: T1, RNA-binding protein pos-1 (Caenorhabditis elegans, UniProt G5EF15); assay: disruptors of C. elegans POS-1 RNA interaction – biochemical, fluorescence polarization, dose response (AID 1964);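 note: purified POS-1 fused to maltose binding protein made in E. coli; potency of compounds blocking POS-1 binding to fluorescent RNA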
# T1 sequence (G5EF15 whole entry): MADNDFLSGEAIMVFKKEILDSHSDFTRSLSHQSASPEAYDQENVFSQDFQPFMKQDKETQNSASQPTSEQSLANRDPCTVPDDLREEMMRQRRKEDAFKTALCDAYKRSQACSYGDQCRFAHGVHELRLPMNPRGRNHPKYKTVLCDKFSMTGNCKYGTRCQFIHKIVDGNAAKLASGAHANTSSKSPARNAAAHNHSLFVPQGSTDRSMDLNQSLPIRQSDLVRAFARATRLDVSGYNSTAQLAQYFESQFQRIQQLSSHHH
# [2] = target: T2, Zinc finger protein mex-5 (Caenorhabditis elegans, UniProt Q9XUB2); assay: potency of MEX-5 RNA-binding blockers – biochemical, C. elegans, fluorescence polarization, dose response (AID 1960)
# T2 sequence (Q9XUB2 whole entry): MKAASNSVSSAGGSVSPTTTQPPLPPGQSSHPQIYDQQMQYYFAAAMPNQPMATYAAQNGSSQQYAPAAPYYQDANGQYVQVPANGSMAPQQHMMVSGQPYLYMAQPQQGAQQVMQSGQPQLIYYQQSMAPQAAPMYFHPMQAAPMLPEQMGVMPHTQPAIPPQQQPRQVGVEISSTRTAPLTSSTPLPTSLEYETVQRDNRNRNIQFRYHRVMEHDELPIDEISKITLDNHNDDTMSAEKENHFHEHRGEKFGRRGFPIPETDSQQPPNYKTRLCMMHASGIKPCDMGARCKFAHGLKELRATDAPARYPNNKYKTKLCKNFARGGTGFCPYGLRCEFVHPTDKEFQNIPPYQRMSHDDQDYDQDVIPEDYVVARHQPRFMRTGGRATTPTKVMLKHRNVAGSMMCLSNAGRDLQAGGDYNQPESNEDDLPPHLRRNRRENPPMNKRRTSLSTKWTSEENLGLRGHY
# [3] = target: Tyrosyl-DNA phosphodiesterase 2 (Homo sapiens, UniProt O95551); assay: potency against TDP2 phosphodiesterase activity – biochemical, epi absorbance, IC50, dose response (AID 743297)
# [4] = target: T3, Oxysterols receptor LXR-beta (Homo sapiens, UniProt P55055); assay type: functional, cell-based;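 note: Cell-based luminescence dose-response assay of agonist activity at LXR, run as a confirmatory counterscreen to a daf-12 agonist screen; HEK293 cells with Gal4-LXR fusion and GAL4-driven luciferase reporter; agonist potency from rising luciferase signal of a Gal4-LXR reporter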
# T3 sequence (P55055 whole entry): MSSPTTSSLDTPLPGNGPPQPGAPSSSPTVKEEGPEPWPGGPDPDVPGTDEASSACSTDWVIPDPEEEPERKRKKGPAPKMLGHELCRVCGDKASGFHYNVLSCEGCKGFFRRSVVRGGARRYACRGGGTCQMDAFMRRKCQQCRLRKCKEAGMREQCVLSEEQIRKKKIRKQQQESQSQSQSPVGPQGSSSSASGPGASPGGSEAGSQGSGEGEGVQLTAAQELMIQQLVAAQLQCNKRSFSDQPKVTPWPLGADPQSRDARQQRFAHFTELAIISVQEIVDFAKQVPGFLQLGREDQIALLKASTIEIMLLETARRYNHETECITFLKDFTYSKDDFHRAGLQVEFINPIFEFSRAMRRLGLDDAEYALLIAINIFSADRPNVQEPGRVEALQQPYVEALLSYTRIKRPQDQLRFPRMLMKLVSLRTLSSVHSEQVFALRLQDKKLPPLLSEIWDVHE
# cells [5] = assay: cells
# [6] = target: T4, Trace amine-associated receptor 1 (Homo sapiens, UniProt Q96RJ0); assay: Counterscreen for agonists of the human trace amine associated receptor 1 (hTAAR1): Fluorescence-based cell-based high throughput dose response assay to identify hTAAR1 agonist that also desensitize TAAR1 receptor response.; assay type: functional
# T4 sequence (Q96RJ0 whole entry): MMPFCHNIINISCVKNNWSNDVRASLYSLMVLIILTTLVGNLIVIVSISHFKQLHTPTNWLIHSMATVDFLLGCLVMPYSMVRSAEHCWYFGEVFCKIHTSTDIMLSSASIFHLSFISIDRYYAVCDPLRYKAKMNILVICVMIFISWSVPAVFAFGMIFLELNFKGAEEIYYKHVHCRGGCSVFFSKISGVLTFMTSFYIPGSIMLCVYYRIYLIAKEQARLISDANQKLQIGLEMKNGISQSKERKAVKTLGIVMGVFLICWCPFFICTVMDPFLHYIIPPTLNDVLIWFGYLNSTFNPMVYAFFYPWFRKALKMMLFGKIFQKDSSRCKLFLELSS
# cells [7] = assay type: functional, cell-based
# [8] = target: T4, Trace amine-associated receptor 1; assay: Fluorescence-based cell-based high throughput dose response assay to identify agonists of the human trace amine associated receptor 1 (TAAR1).; assay type: functional
# cells [9] = assay type: functional, cell-based; remark: listed apart in the source
# [10] = HIV-1 Vif–A3G interaction blockers – biochemical, TR-FRET, GST-Vif 1-94, biotin-A3G peptide, dose response retest, primary screen (AID 1117319); assay type: functional;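 note: TR-FRET signal of purified GST-Vif binding a biotinylated A3G peptide; inhibitors lower the FRET signal by blocking Vif and A3G binding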
# Albumin = Albumin (Bos taurus, UniProt P02769); assay: Counterscreen for inhibitors of T-cell receptor (TCR)-CD3 interaction: Fluorescence-based biochemical high throughput dose response assay to identify inhibitors of T-cell receptor (TCR)-CD3 interaction using a TAMRA-labeled BSA probe.; assay type: functional
# [11] = A549 cell cytotoxicity, dose response, cytotoxicity control, plate reader, cherry-pick, antagonist series (AID 743412); assay type: functional, cell-based
# [12] = blockade of melanocortin 4 receptor signaling – cell-based, plate reader, cherry pick, counter-screen for LGR2 antagonist project, dose response (AID 743444); assay type: functional;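 note: transfected HEK 293 cells stimulated with alpha-MSH peptide; potency of inhibitors of the alpha-MSH evoked signal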
# [13] = blockers of bursicon-stimulated LGR2 cAMP reporter – cell-based, HEK293, CRE-luciferase reporter, cherry pick, set 2, dose response (AID 743343); assay type: functional;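 note: transfected cells were stimulated with diluted bursicon conditioned medium after compound addition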
# [14] = toxicity toward HepG2 liver cells – cell-based, plate reader, cherry-pick, antagonist series, cytotoxicity control, dose response (AID 743416); assay type: functional
# Tyrosyl-DNA phosphodiesterase 2, sequence (O95551 whole entry, the tested form may be a part): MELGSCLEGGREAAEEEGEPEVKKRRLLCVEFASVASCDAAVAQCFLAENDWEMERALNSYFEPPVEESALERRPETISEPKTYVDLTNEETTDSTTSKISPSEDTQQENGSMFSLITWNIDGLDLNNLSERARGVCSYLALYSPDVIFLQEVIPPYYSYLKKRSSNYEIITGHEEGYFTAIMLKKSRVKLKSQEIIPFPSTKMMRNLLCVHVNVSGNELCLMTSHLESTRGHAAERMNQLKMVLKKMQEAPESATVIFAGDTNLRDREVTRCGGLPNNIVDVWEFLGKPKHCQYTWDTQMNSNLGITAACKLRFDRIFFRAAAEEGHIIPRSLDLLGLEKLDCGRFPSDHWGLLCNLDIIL
# Albumin, sequence (P02769 whole entry): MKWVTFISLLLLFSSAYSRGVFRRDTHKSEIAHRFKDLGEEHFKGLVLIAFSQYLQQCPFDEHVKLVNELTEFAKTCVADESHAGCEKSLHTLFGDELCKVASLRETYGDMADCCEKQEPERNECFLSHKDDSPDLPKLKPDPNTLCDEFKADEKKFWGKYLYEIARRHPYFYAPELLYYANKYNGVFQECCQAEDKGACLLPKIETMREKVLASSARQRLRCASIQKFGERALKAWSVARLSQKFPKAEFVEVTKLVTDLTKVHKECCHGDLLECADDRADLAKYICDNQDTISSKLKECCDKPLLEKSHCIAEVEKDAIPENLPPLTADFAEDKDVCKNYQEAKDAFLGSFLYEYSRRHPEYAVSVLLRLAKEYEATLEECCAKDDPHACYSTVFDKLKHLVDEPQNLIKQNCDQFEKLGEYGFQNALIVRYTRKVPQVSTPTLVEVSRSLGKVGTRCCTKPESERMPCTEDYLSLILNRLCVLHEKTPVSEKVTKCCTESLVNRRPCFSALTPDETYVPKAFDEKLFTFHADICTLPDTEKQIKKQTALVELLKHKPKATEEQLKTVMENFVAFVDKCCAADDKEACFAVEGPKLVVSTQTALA
structure (smiles),measurement,setting,value
CN(C)c1cccc2c1c(NS(=O)(=O)c1cn(C)cn1)nn2C,EC50,[1],89.8 µM (active)
same,EC50,[2],32.5 µM (active)
same,IC50,[3],106 µM (inactive)
Nc1nc2c(-c3ccc(Br)cc3)nnn2c2ccccc12,EC50,[4],> 67.6 µM (inactive)
same,EC50,cells [5],> 67.6 µM (inactive)
O=P1(O)C=C(c2ccccc2)OC(c2ccccc2)=C1,EC50,[4],> 67.5 µM (inactive)
same,EC50,cells [5],> 67.5 µM (inactive)
O=C(NCCc1cccs1)c1ccc(Cl)cc1,IC50,[6],3.48 µM (active)
same,EC50,cells [7],> 29.9 µM (inactive)
same,EC50,[8],1.19 µM (active)
same,IC50,cells [9],> 29.9 µM (inactive)
CN(C)c1ccc(/C=C/C#N)cc1,IC50,[10],> 100 µM (active)
O=C(NNC(=O)c1ccc2ccccc2c1O)NC1CCCCC1,IC50,Albumin,> 94.1 µM (inactive)
Cc1ccc(C(=O)NC2CCCCCCC2)c(Cl)c1,AC50,[11],25.8 µM (active)
same,AC50,[12],5.7 µM (active)
same,AC50,[13],8.04 µM (active)
same,AC50,[14],25.6 µM (active)
